Test results from patent US20020132319A1, “Peptide mutant of human ERAB or HADH2, its X-ray crystal structure, and materials and method for identification of inhibitors thereof” (priority 2000, published 2002).
“Also recorded” adds a separate entry of the source.

Tests used:
[1] = biological target: Streptomycetes hydrogenans 3α-20β- hydroxysteroid dehydrogenase (Streptomyces exfoliatus, UniProt P19992); assay: Inhibition of related SDR family member (Streptomyces enzyme); type: biochemical; conditions: at concentrations as high as 100 μM
Sequence of Streptomycetes hydrogenans 3α-20β- hydroxysteroid dehydrogenase (P19992 whole entry): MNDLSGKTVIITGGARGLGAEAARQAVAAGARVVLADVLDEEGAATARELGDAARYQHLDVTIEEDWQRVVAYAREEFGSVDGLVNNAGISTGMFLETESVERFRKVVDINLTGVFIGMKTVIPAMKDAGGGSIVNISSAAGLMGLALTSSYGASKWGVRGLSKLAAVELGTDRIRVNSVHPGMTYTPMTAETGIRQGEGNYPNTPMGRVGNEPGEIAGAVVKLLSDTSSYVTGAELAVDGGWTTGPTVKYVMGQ

[2] = biological target: E. coli 17β-hydroxysteroid dehydrogenase (Escherichia coli, UniProt P0AET8); assay: Inhibition of related SDR family member (E. coli enzyme); type: biochemical; conditions: at concentrations as high as 100 μM
Sequence of E. coli 17β-hydroxysteroid dehydrogenase (P0AET8 whole entry): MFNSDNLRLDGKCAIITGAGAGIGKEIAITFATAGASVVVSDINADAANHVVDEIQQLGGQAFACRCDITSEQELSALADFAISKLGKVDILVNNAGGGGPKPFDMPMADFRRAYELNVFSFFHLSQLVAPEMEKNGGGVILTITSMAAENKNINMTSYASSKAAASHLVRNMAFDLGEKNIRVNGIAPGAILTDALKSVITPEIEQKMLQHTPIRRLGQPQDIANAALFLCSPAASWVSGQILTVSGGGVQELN

ERAB or HADH2 = biological target: T1, ERAB or HADH2 (Homo sapiens, UniProt Q99714); assay: Spectrophotometric ERAB or HADH2 inhibition assay (NADH, acetoacetyl-CoA as substrate); type: biochemical
T1 construct: made in house; host or cells: E. coli (plasmid pMGH4)
T1 sequence (Q99714 1-261): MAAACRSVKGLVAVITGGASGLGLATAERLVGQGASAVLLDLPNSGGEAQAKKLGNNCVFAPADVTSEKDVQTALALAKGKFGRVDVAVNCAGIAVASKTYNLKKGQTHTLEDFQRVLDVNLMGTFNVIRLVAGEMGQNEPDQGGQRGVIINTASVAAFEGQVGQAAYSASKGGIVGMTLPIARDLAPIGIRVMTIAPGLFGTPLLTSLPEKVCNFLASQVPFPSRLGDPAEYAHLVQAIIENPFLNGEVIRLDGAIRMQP
Procedure: The IC50 value for Compound I was determined spectrophotometrically by monitoring the […] of NADH to NAD^+ with acetoacetyl-CoA as substrate. Enzyme (2.5 nM) was preincubated with inhibitor for 400 seconds at 30° C. in the presence of 36 uM NADH, 25 mM MOPS, pH 7.5, 250 mM NaCl, 2% (v/v) DMSO, and 2.5 mM TCEP. The reaction was initiated by addition of substrate (38 μM). Reduction of NADH was monitored at […]. The IC50 value was determined by non-linear regression analysis using KaleidaGraph (obtained from Synergy Software, Reading, Pa.).

wild-type ERAB or HADH2 [3] = biological target: T2, wild-type ERAB or HADH2 (Homo sapiens, UniProt Q99714); assay: Isothermal titration calorimetry, inhibitor binding experiments
T2 construct: made in house; host or cells: E. coli (plasmid pMGH4; spontaneous mutant of strain BL21(DE3), 'B121 (DE3)' [sic])
T2 sequence (Q99714 1-261): T1 sequence (Q99714 1-261)
Procedure: FIG. 5 is a plot of integrated-binding data obtained for a calorimetric titration of wild-type ERAB or HADH2 into Compound I in the presence and absence of cofactor. Wild-type ERAB or HADH2 (415 μM) was titrated into 20 μM inhibitor in the presence and absence of 20 μM cofactor at 15° C. The closed symbols represent the integrated-data points for 10 μL injections of ERAB or HADH2 into inhibitor in the absence of cofactor (♦); in the presence of NAD^+ (●); and in the presence of NADH (▪). The open symbols represent the integrated data points for the corresponding control titrations of ERAB or HADH2 into buffer (Δ); in the presence of NAD^+ (∘); and in the presence of NADH (□). Lines connecting the data points have been added for visual clarity.
(§1) Titrations described herein were performed with an MCS microcalorimeter (obtained from MicroCal, Inc., Northampton, […].).
(§2) For the inhibitor binding experiments, the titrations were performed in 25 mM MOPS (pH 7.5), 125 mM NaCl, 10% glycerol, 2.0% DMSO, 0.5 mM TCEP (Tri(2-carboxyethyl)phosphine), 0.1 mM EDTA at 15° C. The syringe contained 415 μM wild-type ERAB or HADH2 and the cell contained either 20 μM inhibitor, 20 μM cofactor, or 20 μM each of inhibitor and cofactor. After a preliminary 20 μL injection, 12 injections of 10.0 μL each were made at 4 minute intervals. Dilution control titrations of buffer into buffer, protein into buffer, and buffer into inhibitor, cofactor and inhibitor/cofactor mixture were also performed. For the cofactor binding experiments, the titrations were performed in 50 mM MOPS (3-(N-morpholino) propanesulfonic acid, pH 7.5), 250 mM NaCl, 10% glycerol, 2.0% DMSO, 10 mM TCEP at 15° C.

wild-type ERAB or HADH2 [4] = biological target: T2, wild-type ERAB or HADH2; assay: Isothermal titration calorimetry, cofactor binding experiments; conditions: 2.68 mM cofactor titrated into 127 μM wild-type ERAB or HADH2, 15° C.; read-out: Kd for NAD+
Procedure: as §1, §2
For the NADH titration, the syringe contained 700 μM cofactor and the cell contained 35 μM wild type ERAB or HADH2. For the NAD^+ titration, the syringe contained 2.68 mM cofactor and the cell contained 127 μM wild-type ERAB or HADH2.

Kd (wild-type ERAB or HADH2 [4]) [µM]	ITC binding when ERAB or HADH2 titrated into cofactor alone (wild-type ERAB or HADH2 [3]; ERAB 415 μM titrated into 20 μM NAD+ alone, 15° C.)	SMILES	inhibition of Streptomycetes hydrogenans 3α-20β-hydroxysteroid dehydrogenase [1]	inhibition of E. coli 17β-hydroxysteroid dehydrogenase [2]	IC50 against ERAB (ERAB or HADH2; Compound I made according to Scheme 1) [µM]	average IC50 against ERAB or HADH2 (ERAB or HADH2; Compound I made according to Scheme 2, racemic mixture) [µM]	ITC binding to ERAB or HADH2 in the absence of cofactor (wild-type ERAB or HADH2 [3]; ERAB 415 μM titrated into 20 μM inhibitor alone, 15° C.)	ITC binding to ERAB or HADH2 in the presence of NAD+ (wild-type ERAB or HADH2 [3]; ERAB titrated into equimolar 20 μM inhibitor and NAD+, 15° C.)	ITC binding to ERAB or HADH2 in the presence of NADH (wild-type ERAB or HADH2 [3]; ERAB titrated into equimolar 20 μM inhibitor and NADH, 15° C.)	binding to ERAB or HADH2 more potent with NAD+ than in the absence of NAD+ (wild-type ERAB or HADH2 [3]; with NAD+ versus absence of NAD+)
–	–	O=C(C(c1ccccc1)n1cnc2[nH]ncc2c1=S)N1CCCCCC1 (racemic) [Compound I, 1-azepan-1-yl-2-phenyl-2-(4-thioxo-1,4-dihydro-pyrazolo[3,4-d]pyrimidin-5-yl)-ethanone]	no detectable inhibition	no detectable inhibition	0.088	0.092 ± 0.005	binds weakly; also recorded: No binding was detected	tight-binding curve	binds weakly	approximately 1000 fold
~500	No binding was detected	NC(=O)c1ccc[n+]([C@@H]2O[C@H](COP(=O)([O-])OP(=O)(O)OC[C@H]3O[C@@H](n4cnc5c(N)ncnc54)[C@H](O)[C@@H]3O)[C@@H](O)[C@H]2O)c1 [NAD^+, reference compound]	–	–	–	–	–	–	–	–
